Drawing on patent US9321760B2 (Merck Patent GmbH, priority 2011, dated 2016), this text covers IC50 for 32 compounds.

The target of the test is P70S6K (T412E mutant) (Homo sapiens (Human), UniProt P23443, T412E). Nature of the test: P70S6K enzyme assay. The format is biochemical. To be noted: 3 nM P70S6K T412E mutant, 24 μM ATP, 1 μM FITC-AHA-AKRRRLSSLRA-OH substrate peptide, 90 min at 25° C. How it is done:
The IC50 values reported for the compounds in the Experimental section were derived from the following protocol for the p70S6K enzyme assay.
P70S6K inhibitor compounds were diluted and plated in 96 well plates. A reaction mixture including the following components was then added to the compound plate to initiate the enzyme reaction; P70S6K (3 nM, T412E mutant, Millipore) was mixed with 24 μM ATP in an assay buffer containing 100 mM Hepes (pH 7.5), 5 mM MgCl2, 1 mM DTT, 0.015% Brij and 1 μM of the substrate peptide FITC-AHA-AKRRRLSSLRA-OH (derived from the S6 ribosomal protein sequence, FITC=fluorescein isothiocyanate, AHA=6-aminohexanoic acid). The reaction was incubated for 90 min at 25° C., before the addition of 10 mM EDTA to stop the reaction. The proportion of substrate and product (phosphorylated) peptide was analysed on a Caliper Life Sciences Lab Chip 3000, using a pressure of −1.4 psi, and upstream and downstream voltages of −3000 and −700 respectively. Product peaks were resolved before substrate peaks on the resulting chromatograms.

P70S6K (T412E mutant), sequence (P23443 whole entry T412E): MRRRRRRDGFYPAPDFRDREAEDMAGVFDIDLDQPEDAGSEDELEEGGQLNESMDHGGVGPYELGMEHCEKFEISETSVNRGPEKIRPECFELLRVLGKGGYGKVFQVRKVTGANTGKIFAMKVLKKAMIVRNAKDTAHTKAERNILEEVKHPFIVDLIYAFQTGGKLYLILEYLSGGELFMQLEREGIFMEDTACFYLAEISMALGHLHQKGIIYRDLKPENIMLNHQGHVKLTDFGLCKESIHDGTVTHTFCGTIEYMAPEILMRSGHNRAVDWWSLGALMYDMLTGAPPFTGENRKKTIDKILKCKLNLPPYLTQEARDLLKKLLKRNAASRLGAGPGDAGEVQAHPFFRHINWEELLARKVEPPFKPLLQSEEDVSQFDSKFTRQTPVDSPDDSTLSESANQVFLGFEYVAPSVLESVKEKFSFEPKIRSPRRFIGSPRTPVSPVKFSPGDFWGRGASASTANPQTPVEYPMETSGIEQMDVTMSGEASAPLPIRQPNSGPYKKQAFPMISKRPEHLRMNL

Compound `NCC(c1ccc(C(F)(F)F)cc1)N1CCN(c2ncnc(N)c2-c2cnoc2)CC1` (centres unmarked) [Example 38, 6-(4-(2-amino-1-(4-(trifluoromethyl)phenyl)ethyl)piperazin-1-yl)-5-(isoxazol-4-yl)pyrimidin-4-amine] returned a concentration for half-maximal inhibition (IC50) of 100 nM. For `CCn1cc(-c2c(N)ncnc2N2CCN(C(CN)c3ccc(C(F)(F)F)cc3)CC2)cn1` (centres unmarked) [Example 39, 6-(4-(2-amino-1-(4-(trifluoromethyl)phenyl)ethyl)piperazin-1-yl)-5-(1-ethyl-1H-pyrazol-4-yl)pyrimidin-4-amine] the value was 12 nM; for `Cn1cc(-c2c(N)ncnc2N2CCN(C(CN)c3ccc(C(F)(F)F)cc3)CC2)cn1` (centres unmarked) [Example 40, 6-{4-[2-Amino-1-(4-trifluoromethyl-phenyl)-ethyl]-piperazin-1-yl}-5-(1-methyl-1H-pyrazol-4-yl)-pyrimidin-4-ylamine], 11 nM; for `Cn1cc(-c2c(N)ncnc2N2CCN([C@H](CN)c3ccc(C(F)(F)F)cc3)CC2)cn1` [Example 41, 6-{4-[(S)-2-Amino-1-(4-trifluoromethyl-phenyl)-ethyl]-piperazin-1-yl}-5-(1-methyl-1H-pyrazol-4-yl)-pyrimidin-4-ylamine], 14 nM. For `Cn1cc(-c2c(N)ncnc2N2CCN([C@@H](CN)c3ccc(C(F)(F)F)cc3)CC2)cn1` [Example 42, 6-{4-[(R)-2-Amino-1-(4-trifluoromethyl-phenyl)-ethyl]-piperazin-1-yl}-5-(1-methyl-1H-pyrazol-4-yl)-pyrimidin-4-ylamine], the concentration for half-maximal inhibition (IC50) was 6 nM. For `Cn1ccc(-c2c(N)ncnc2N2CCN(C(CN)c3ccc(C(F)(F)F)cc3)CC2)n1` (centres unmarked) [Example 43, 6-{4-[2-Amino-1-(4-trifluoromethyl-phenyl)-ethyl]-piperazin-1-yl}-5-(1-methyl-1H-pyrazol-3-yl)-pyrimidin-4-ylamine] the value was 98 nM; for `Cn1ccc(-c2c(N)ncnc2N2CCN(C(CNC(C)(C)C(C)(C)O)c3ccc(C(F)(F)F)cc3)CC2)n1` (centres unmarked) [Example 44, 3-[2-{4-[6-Amino-5-(1-methyl-1H-pyrazol-3-yl)-pyrimidin-4-yl]-piperazin-1-yl}-2-(4-trifluoromethyl-phenyl)-ethylamino]-2,3-dimethyl-butan-2-ol], 150 nM. For `NCC(c1ccc(C(F)(F)F)cc1)N1CCN(c2ncnc(N)c2CN2CC(F)C2)CC1` (centres unmarked) [Example 45, 6-(4-(2-amino-1-(4-(trifluoromethyl)phenyl)ethyl)piperazin-1-yl)-5-((3-fluoroazetidin-1-yl)methyl)pyrimidin-4-amine] the value was 210 nM. Take `Nc1ncnc(N2CCC(Cc3ccc(Cl)cc3)CC2)c1Br` [Example 46, 5-Bromo-6{4-(4-chlorobenzyl)-piperidin-1-yl}pyrimidin-4-amine]: half-maximal inhibition (IC50) was put at 630 nM. Turning to `Nc1ncnc(N2CCC(Cc3ccc(C(F)(F)F)cc3)CC2)c1Br` [Example 47, 5-Bromo-6{4-(4-trifluoromethylbenzyl)-piperidin-1-yl}pyrimidin-4-amine], half-maximal inhibition (IC50) was put at 960 nM.

With `Nc1ncnc(N2CCC(Cc3ccc(C(F)(F)F)cc3)CC2)c1-c1ccc(F)cc1` [Example 48, 5-(4-Fluorophenyl)-6{4-(4-trifluoromethylbenzyl)-piperidin-1-yl}pyrimidin-4-amine], the IC50 stood at 66 nM. Compound `Nc1ncnc(N2CCC(Cc3ccc(Cl)cc3)CC2)c1-c1ccc(F)cc1` [Example 49, 5-(4-Fluorophenyl)-6{4-(4-chlorobenzyl)-piperidin-1-yl}pyrimidin-4-amine] yielded a half-inhibitory concentration (IC50) of 16 nM. As for `Nc1ncnc(N2CCC(Cc3ccc(-c4ccc(F)cc4)cc3)CC2)c1-c1ccc(F)cc1` [Example 50, 5-(4-Fluorophenyl)-6{4-(4-(4-fluorophenyl)benzyl)-piperidin-1-yl}pyrimidin-4-amine], the figure is 450 nM; as for `NCC(c1ccc(C(F)(F)F)cc1)C1CCN(c2ncnc(N)c2Br)CC1` (centres unmarked) [Example 51, 6-{4-[2-Amino-1-(4-trifluoromethyl-phenyl)-ethyl]-piperidin-1-yl}-5-bromo-pyrimidin-4-ylamine], 41 nM.

In turn, `NCC(c1ccc(C(F)(F)F)cc1)C1CCN(c2ncnc(N)c2-c2ccc(F)cc2)CC1` (centres unmarked) [Example 52, 6-{4-[2-Amino-1-(4-trifluoromethyl-phenyl)-ethyl]-piperidin-1-yl}-5-(4-fluoro-phenyl)-pyrimidin-4-ylamine] displayed an IC50 of 3.3 nM. As for `NC[C@H](c1ccc(C(F)(F)F)cc1)C1CCN(c2ncnc(N)c2-c2ccc(F)cc2)CC1` [Example 53, 6-{4-[(S)-2-Amino-1-(4-trifluoromethyl-phenyl)-ethyl]-piperidin-1-yl}-5-(4-fluoro-phenyl)-pyrimidin-4-ylamine], the figure is 3.2 nM. For `NC[C@@H](c1ccc(C(F)(F)F)cc1)C1CCN(c2ncnc(N)c2-c2ccc(F)cc2)CC1` [Example 54, 6-{4-[(R)-2-Amino-1-(4-trifluoromethyl-phenyl)-ethyl]-piperidin-1-yl}-5-(4-fluoro-phenyl)-pyrimidin-4-ylamine] the value was 4.5 nM; for `NCC(c1ccc(C(F)(F)F)cc1)C1CCN(c2ncnc(N)c2-c2cn[nH]c2)CC1` (centres unmarked) [Example 55, 6-(4-(2-amino-1-(4-(trifluoromethyl)phenyl)ethyl)piperidin-1-yl)-5-(1H-pyrazol-4-yl)pyrimidin-4-amine], 5.2 nM.

`Cn1cc(-c2c(N)ncnc2N2CCC(C(CN)c3ccc(C(F)(F)F)cc3)CC2)cn1` (centres unmarked) [Example 58, 6-(4-(2-amino-1-(4-(trifluoromethyl)phenyl)ethyl)piperidin-1-yl)-5-(1-methyl-1H-pyrazol-4-yl)pyrimidin-4-amine] displayed a concentration for half-maximal inhibition (IC50) of 31 nM.

Compound `NCC(c1ccc(C(F)(F)F)cc1)C1CCN(c2ncnc(N)c2-c2cnoc2)CC1` (centres unmarked) [Example 59, 6-(4-(2-amino-1-(4-(trifluoromethyl)phenyl)ethyl)piperidin-1-yl)-5-(isoxazol-4-yl)pyrimidin-4-amine] had a concentration for half-maximal inhibition (IC50) of 140 nM.

For the compound `Nc1ncnc(N2CCN(Cc3cc(Cl)c(Cl)cc3O)CC2)c1-c1ccc(F)cc1` [Example 60, 2-((4-(6-amino-5-(4-fluorophenyl)pyrimidin-4-yl)piperazin-1-yl)methyl)-4,5-dichlorophenol], the IC50 amounted to 74 nM. For `CC(c1ccc(Cl)cc1O)N1CCN(c2ncnc(N)c2-c2ccc(F)cc2)CC1` (centres unmarked) [Example 61, 2-(1-(4-(6-amino-5-(4-fluorophenyl)pyrimidin-4-yl)piperazin-1-yl)ethyl)-5-chlorophenol] the value was 33 nM. For `Nc1ncnc(N2CCN(Cc3cc(Cl)c(Cl)cc3OC3CNC3)CC2)c1-c1ccc(F)cc1` [Example 62, 6-(4-(2-(azetidin-3-yloxy)-4,5-dichlorobenzyl)piperazin-1-yl)-5-(4-fluorophenyl)pyrimidin-4-amine] the value was 980 nM; for `CC(c1ccc(Cl)cc1OC1CNC1)N1CCN(c2ncnc(N)c2-c2ccc(F)cc2)CC1` (centres unmarked) [Example 63, 6-(4-{1-[2-(Azetidin-3-yloxy)-4-chloro-phenyl]-ethyl}-piperazin-1-yl)-5-(4-fluoro-phenyl)-pyrimidin-4-ylamine], 980 nM.

Consider `Nc1ncnc(N2CCN(C(CN3CCCCC3)c3cccc(F)c3)CC2)c1-c1ccc(F)cc1` (centres unmarked) [Example 64, 5-(4-Fluorophenyl)-6{4-[1-(3-fluoro-phenyl)-2-piperidin-1-yl-ethyl]-piperazin-1-yl}-pyrimidin-4-ylamine], for which 50 nM corresponded to half-maximal inhibition (IC50). For `Nc1ncnc(N2CCN(C(CN3CCCCC3)c3cccc(C(F)(F)F)c3)CC2)c1-c1ccc(F)cc1` (centres unmarked) [Example 65, 5-(4-Fluorophenyl)-6{4-[1-(3-trifluoro-phenyl)-2-piperidin-1-yl-ethyl]-piperazin-1-yl}-pyrimidin-4-ylamine] the value was 120 nM; for `Nc1ncnc(N2CCN(C(CN3CCCC3)c3cccc(C(F)(F)F)c3)CC2)c1-c1ccc(F)cc1` (centres unmarked) [Example 66, 5-(4-Fluorophenyl)-6{4-[1-(3-trifluoromethyl-phenyl)-2-pyrrolidin-1-yl-ethyl]-piperazin-1-yl}-pyrimidin-4-ylamine], 82 nM. As for `Nc1ncnc(N2CCN(C(CN3CCCCC3)c3ccc(F)cc3)CC2)c1-c1ccc(F)cc1` (centres unmarked) [Example 67, 5-(4-Fluorophenyl)-6{4-[1-(4-fluoro-phenyl)-2-piperidin-1-yl-ethyl]-piperazin-1-yl}-pyrimidin-4-ylamine], the figure is 24 nM; as for `Nc1ncnc(N2CCN(C(CN3CCCCC3)c3cccc(F)c3)CC2)c1Br` (centres unmarked) [Example 68, 5-Bromo-6{4-[1-(3-fluoro-phenyl)-2-piperidin-1-yl-ethyl]-piperazin-1-yl}-pyrimidin-4-ylamine], more than 1000 nM. For `Nc1ncnc(N2CCN(C(CN3CCCC3)c3cccc(C(F)(F)F)c3)CC2)c1Br` (centres unmarked) [Example 69, 5-Bromo-6{4-[1-(3-trifluoromethyl-phenyl)-2-pyrrolidin-1-yl-ethyl]-piperazin-1-yl}-pyrimidin-4-ylamine] the value was more than 1000 nM; for `Nc1ncnc(N2CCN(C(CN3CCCCC3)c3cccc(C(F)(F)F)c3)CC2)c1Br` (centres unmarked) [Example 70, 5-Bromo-6{4-[1-(3-trifluoromethyl-phenyl)-2-piperidin-1-yl-ethyl]-piperazin-1-yl}-pyrimidin-4-ylamine], more than 1000 nM; for `Nc1cc(N2CCN(C(CN3CCCCC3)c3cccc(C(F)(F)F)c3)CC2)ncn1` (centres unmarked) [Example 71, 6-{4-[1-(3-trifluoromethyl-phenyl)-2-piperidin-1-yl-ethyl]-piperazin-1-yl}-pyrimidin-4-ylamine], more than 1000 nM.

A word on the IC50: it is the concentration needed to halve the response being measured. A higher IC50 goes with weaker potency.
